In assay [1] the target is T1, KRAS in AGS cells (KRAS G12D mutant cell line) or LS180 cells (KRAS G12D mutant cell line) (Homo sapiens, UniProt P01116, G12D).
T1 construct: CRL-187 (LS180) (so in the source); host or cells: AGS or LS180 cells
The experiment in a line: KRAS Western Blot (WB) assay. It counts as cell-based. To be noted: KRAS degradation, 24 hours incubation, normalized to β-actin. How it is done:
Day 1. Seeded AGS cells (KRAS G12D mutant cell line, ATCC, CRL-1739) or LS180 cells (KRAS G12D mutant cell line, ATCC, CRL-187) into 6-well plates (cell density: 3×10^5 cells/well/2 ml medium) in Ham's F-12 medium (Invitrogen, 11765-054) or Eagle's Minimum Essential Medium (ATCC, 30-2003) and incubated overnight at 37° C. and 5% CO2.
Day 2. Aspirated 1 ml medium from each well and added 1 ml medium containing DMSO or test compound into the well to achieve the desired final concentration. Mixed well by gentle shaking and incubated for 24 hours.
Day 3. Aspirated media from plates; washed cells with 2 ml 4° C. PBS (Solarbio, P1020-500) and aspirated the PBS. Then added 100 μl 4° C. […] lysis buffer (Boston BioProducts BP-115D) with protease and phosphatase inhibitors at vendor recommended concentrations (Roche 05892791001 and 04906837001) into each well to lyse the cells, and incubated for 20 minutes at 4° C. Cell lysate was collected into 1.5 ml Eppendorf tube, and the lysate was sonicated at 4° C. for 2 minutes (5 second pulse at 30% power with 10 second intermissions). The lysate was centrifuged at 12,000 rpm for 15 minutes at 4° C. The supernatant was transferred to a fresh Eppendorf tube, and protein concentration was quantified using a BCA kit (Solarbio, PC0020-500). Mixed the cell lysate and 5×NuPAGE SDS Loading Buffer (Beyotime, P0015L), and heated at 95° C. for 10 minutes in a heat block. Prepared samples were stored at −80° C. until SDS-PAGE procedure.
Day 4. Loaded 15 μg protein from each sample onto NuPAGE® Novex 4-12% Bis-Tris Midi Gel, 26 W (Invitrogen, WG1403BOX) and ran the gel at 120V for 1.5 hours in 1×NuPAGE® MOPS SDS Running Buffer (Novex, NP0001). Electrotransferred to nitrocellulose membrane using dry transfer method (iBlot 2 Transfer Stacks, nitrocellulose, IB23001) with a program consisting of 20V for 1 minute, 23V for 4 minutes and 25V for 2 minutes. Blocked the membrane with 5% BSA (Solarbio, A8020) in 1×TBST (CST, 9997S) for 1 hour at room temperature. Incubated with KRAS antibody (LSBio, LS-C175665, clone 2C1) at 1:1000 dilution and β-actin antibody at 1:1000 dilution (CST, 4970S) in TBST containing 1% BSA (Solarbio, A8020) at 4° C. overnight.
Day 5. Washed nitrocellulose membrane three times with 1×TBST for 10 minutes each at room temperature. Incubated with fluorescently labeled secondary antibodies at 1:5000 dilution in TBST containing 1% BSA (anti-rabbit IgG, Licor, 926-32211; anti-mouse IgG, LI-COR, 926-68070) for 1 hour at room temperature. Washed membrane three times with TBST, 10 minutes each. Scanned the membrane on LiCOR scanner for fluorescent signal(s) and quantified KRAS bands and β-actin bands for normalization.
The data are reported in Table 2, wherein “A” indicates a DC50 of less than 1 μM; “B” indicates a DC50 of greater than or equal to 1 μM and less than 10 μM; and “C” indicates a DC50 of greater than or equal to 10 μM.
Background: In western blotting, separated proteins are transferred to a membrane and probed.

Assay [2] concerns the target T2, KRAS (G12D)-HiBit in AsPc-1-KRAS (G12D)-HiBit-KI cell (Homo sapiens, UniProt P01116, G12D).
T2 construct: host or cells: AsPc-1-KRAS (G12D)-HiBit-KI cells (knock-in line)
The experiment in a line: G12D HiBit assay. It counts as cell-based. To be noted: 24 hours compound treatment, absolute DC50, read-out: Average PHA DC50. In short, it runs like this: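 Degradation of endogenous HiBiT-tagged KRAS G12D in AsPc-1 knock-in cells read after 24 h compound exposure (0.015-300 nM, 3-fold steps) by Nano-Glo HiBiT lytic luminescence. Signal normalised to DMSO-only cells; absolute DC50 derived by curve fitting.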
Background: HiBiT is a short tag that completes a luciferase, so light tracks the accessible tagged protein.

The target in a further assay is KRAS G12C (Homo sapiens, UniProt P01116, G12C). The following applies: homozygous and heterozygous tumor cells; cited from earlier work.
Assay [3] concerns the target T3, KRAS G12D (Homo sapiens, UniProt P01116, G12D). The following applies: cited from earlier work.
Assay [4] deals with tumor models harboring KRAS G12D mutations. The following applies: cited from earlier work.
Assay [5] deals with T3, KRAS G12D. The following applies: switch II pocket of KRAS G12D; noncovalent; cited from earlier work.

As for `C#Cc1c(F)ccc2cc(O)cc(-c3ncc4c(N5CC6CCC(C5)N6)nc(OC[C@]56CCCN5[C@@H](COC(=O)NCCOCCOCCNc5cccc7c5C(=O)N(C5CCC(=O)NC5=O)C7=O)CC6)nc4c3F)c12` (some centres unmarked) [Compound 025], the DC50 entry in assay [1] is listed as “C (DC50 greater than or equal to 10 μM)”.

Regarding `C#Cc1c(F)ccc2cc(O)cc(-c3ncc4c(N5CC6CCC(C5)N6)nc(OC[C@@]56CCCN5[C@H](COC(=O)NCCOCCOCCOCCNc5cccc7c5C(=O)N(C5CCC(=O)NC5=O)C7=O)CC6)nc4c3F)c12` (stereo partly drawn) [Compound 027, [(3R,8R)-8-[[4-(3,8-diazabicyclo[3.2.1]octan-3-yl)-7-(8-ethynyl-7-fluoro-3-hydroxy-1-naphthyl)-8-fluoro-pyrido[4,3-d]pyrimidin-2-yl]oxymethyl]-1,2,3,5,6,7-hexahydropyrrolizin-3-yl]methyl N-[2-[2-[2-[2-[[2-(2,6-dioxo-3-piperidyl)-1,3-dioxo-isoindolin-4-yl]amino]ethoxy]ethoxy]ethoxy]ethyl]carbamate], the DC50 result in assay [1] is listed as “C (DC50 greater than or equal to 10 μM)”.

In the case of `C#Cc1c(F)ccc2cc(O)cc(-c3ncc4c(N5CC6CCC(C5)N6)nc(OC[C@@]56CCCN5[C@H](COC(=O)NCCOCCOCCOCCNc5cccc7c5C(=O)N(C5CCC(=O)NC5=O)C7=O)CC6)nc4c3F)c12` (stereo partly drawn) [Compound 028, [(3S,8S)-8-[[4-(3,8-diazabicyclo[3.2.1]octan-3-yl)-7-(8-ethynyl-7-fluoro-3-hydroxy-1-naphthyl)-8-fluoro-pyrido[4,3-d]pyrimidin-2-yl]oxymethyl]-1,2,3,5,6,7-hexahydropyrrolizin-3-yl]methylN-[2-[2-[2-[2-[[2-(2,6-dioxo-3-piperidyl)-1,3-dioxo-isoindolin-4-yl]amino]ethoxy]ethoxy]ethoxy]ethyl]carbamate], the DC50 result in assay [1] is reported as “C (DC50 greater than or equal to 10 μM)”.

With `C#Cc1c(F)ccc2cccc(-c3ncc4c(N5CC6CCC(C5)N6)nc(OC[C@@]56CCCN5[C@H](COC(=O)NCCCCCCCCc5ccc7c(c5)n(C)c(=O)n7C5CCC(=O)NC5=O)CC6)nc4c3F)c12` (stereo partly drawn) [Compound 029, [(3S,8S)-8-[[4-(3, example 208-diazabicyclo[3.2.1]octan-3-yl)-7-(8-ethynyl-7-fluoro-1-naphthyl)-8-fluoro-pyrido[4,3-d]pyrimidin-2-yl]oxymethyl]-1,2,3,5,6,7-hexahydropyrrolizin-3-yl]methyl N-[8-[1-(2,6-dioxo-3-piperidyl)-3-methyl-2-oxo-benzimidazol-5-yl]octyl]carbamate], the DC50 entry in assay [1] is “A (DC50 less than 1 μM)”.

For `C#Cc1c(F)ccc2cccc(-c3ncc4c(N5CC6CCC(C5)N6)nc(OC[C@@]56CCCN5[C@H](COC(=O)N5CCC(OCCCc7cccc8c7n(C)c(=O)n8C7CCC(=O)NC7=O)CC5)CC6)nc4c3F)c12` (stereo partly drawn) [Compound 031, [(3S,8S)-8-[[4-(3,8-diazabicyclo[3.2.1]octan-3-yl)-7-(8-ethynyl-7-fluoro-1-naphthyl)-8-fluoro-pyrido[4,3-d]pyrimidin-2-yl]oxymethyl]-1,2,3,5,6,7-hexahydropyrrolizin-3-yl]methyl 4-[3-[1-(2,6-dioxo-3-piperidyl)-3-methyl-2-oxo-benzimidazol-4-yl]propoxy]piperidine-1-carboxylate], the values for the DC50 result in assay [1] and in assay [2] were “A (DC50 less than 1 μM)” and below 100 nM, respectively.

As for `C#Cc1c(F)ccc2cc(O)cc(-c3ncc4c(N5CC6CCC(C5)N6)nc(OC[C@@]56CCCN5[C@H](COC(=O)N5CCC(OCCCc7cccc8c7n(C)c(=O)n8C7CCC(=O)NC7=O)CC5)CC6)nc4c3F)c12` (stereo partly drawn) [Compound 032, [(3S,8S)-8-[[4-(3,8-diazabicyclo[3.2.1]octan-3-yl)-7-(8-ethynyl-7-fluoro-3-hydroxy-1-naphthyl)-8-fluoro-pyrido[4,3-d]pyrimidin-2-yl]oxymethyl]-1,2,3,5,6,7-hexahydropyrrolizin-3-yl]methyl4-[3-[1-(2,6-dioxo-3-piperidyl)-3-methyl-2-oxo-benzimidazol-4-yl]propoxy]piperidine-1-carboxylate], the DC50 result in assay [1] is “A (DC50 less than 1 μM)”; in assay [2], below 100 nM.

For `C#Cc1c(F)ccc2cc(O)cc(-c3ncc4c(N5CC6CCC(C5)N6)nc(OC[C@@]56CCCN5[C@H](COC(=O)N5CCC(OCC#Cc7cccc8c7n(C)c(=O)n8C7CCC(=O)NC7=O)CC5)CC6)nc4c3F)c12` (stereo partly drawn) [Compound 033, [(3S,8S)-8-[[4-(3,8-diazabicyclo[3.2.1]octan-3-yl)-7-(8-ethynyl-7-fluoro-3-hydroxy-1-naphthyl)-8-fluoro-pyrido[4,3-d]pyrimidin-2-yl]oxymethyl]-1,2,3,5,6,7-hexahydropyrrolizin-3-yl]methyl 4-[3-[1-(2,6-dioxo-3-piperidyl)-3-methyl-2-oxo-benzimidazol-4-yl]prop-2-ynoxy]piperidine-1-carboxylate], the values for the DC50 entry in assay [1] and in assay [2] were “A (DC50 less than 1 μM)” and below 100 nM, respectively.

With `C=C(F)C(=O)N1CCN(c2nc(OC[C@@H]3CCCN3CCCOCCC(=O)N[C@H](C(=O)N3C[C@H](O)C[C@H]3C(=O)NCc3ccc(-c4scnc4C)cc3)C(C)(C)C)nc3c2CCN(c2cccc4cccc(Cl)c24)C3)C[C@@H]1CC#N` [LC-2], at KRAS G12C, the “degradation of KRAS G12C” value is “can rapidly degrade KRAS G12C”.

`C#Cc1c(F)ccc2cc(O)cc(-c3ncc4c(N5CC6CCC(C5)N6)nc(OC[C@@]56CCCN5C[C@H](F)C6)nc4c3F)c12` [MRTX1133]: the “activity in cellular assays” value on KRAS G12D [3] was “low nanomolar”. Further, in assay [4], the in vivo efficacy entry is recorded as “in vivo efficacy”. For the same compound, the binding affinity entry on KRAS G12D [5] is “picomolar”.

The values are drawn from patent publication US12404285B2, “KRAS G12D proteolysis targeting chimeras” (PAQ Therapeutics Inc., priority 2022, dated 2025).
